For 8 compounds, TGI and GI50 results are on record in PubChem BioAssay (NCI).

What all share (test): NCI anticancer screen, dose series, 48 h
Assay [1] concerns COLO 205 colon.
Assay [2] relates to EKVX NSCLC.
Assay [3] concerns HCC-2998 colon.
Assay [4] has as its system HCT-15 colon.
Assay [5] relates to MALME-3M melanoma.
Assay [6] deals with NCI-H460 lung.
Assay [7] has as its system OVCAR-3 ovarian.
Assay [8] relates to RXF 393 renal.
Assay [9] has as its system SK-OV-3 ovarian.
In assay [10] the test system is SR leukemia.

Structures are written as SMILES.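 How tested: cells in 96-well plates exposed to compound for 48 hours at five concentrations. Here, GI50 denotes the concentration required for 50% inhibition of growth. TGI marks complete inhibition of growth.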

For the compound `Nc1c(-c2nc3ccccc3[nH]2)sc(=S)n1-c1ccccc1`, the TGI in [1], in assay [2], in assay [3], in [4], in [5] and in assay [6] was over 100 µM throughout. The TGI in [7] is over 100 µM; in [8], over 100 µM; in [9], over 100 µM; in assay [10] it was 86.5 µM.

Take `O=C(Nc1ncc(Cc2ccccc2Cl)s1)c1ccc2c(c1)OCCO2`: the GI50 in assay [1] is 0.318 µM; in assay [2] it was 0.663 µM; in [3], 0.468 µM; in assay [4], 0.119 µM; in assay [5], 0.68 µM; in [6], 0.352 µM. The GI50 was 0.285 µM in [7], 0.255 µM in assay [8], 0.537 µM in [9] and 0.206 µM in [10]. In addition, the TGI was 3.55 µM in [1]; over 100 µM in assay [2]; over 55.5 µM in [3]; over 100 µM in assay [4]; over 47.1 µM in assay [5]; over 44.1 µM in [6]. Besides, the TGI is 1.07 µM in assay [7], 1.19 µM in assay [8], 22.6 µM in assay [9] and over 100 µM in [10].

In the case of `O=C(Nc1ccc(Cl)cc1)c1cc2ccccc2cc1O`, the GI50 in [1] was 3.22 µM; in assay [2] it was 2.98 µM; in [3] it was 2.55 µM; in assay [4] it was 3.1 µM; in assay [5] it was 1.67 µM; in [6] it was 2.67 µM. In addition, the GI50 in assay [7] is 2.01 µM; in assay [8] it was 7.19 µM; in assay [9] it was 1.91 µM; in assay [10], 3.93 µM. In addition, the TGI in assay [1] is 18.7 µM; in [2], over 100 µM; in assay [3], 7.65 µM; in [4], over 100 µM; in [5] it was 95.6 µM; in assay [6], over 100 µM. In addition, the TGI was 6.67 µM in [7], over 100 µM in assay [8], 9.61 µM in [9] and over 100 µM in assay [10].

As for `O=C(Oc1ccc(CCl)cc1)c1ccccc1`, the GI50 in [1] was 0.136 µM; in [2], 0.531 µM; in assay [3], 0.189 µM; in assay [4], 0.181 µM; in assay [5] it was 0.127 µM; in assay [6], 0.238 µM. The GI50 in assay [7] was 0.164 µM; in assay [8] it was 0.174 µM; in assay [9] it was 0.386 µM; in assay [10], 0.0594 µM. Also, the TGI in assay [1] was found to be 0.307 µM; in assay [2], 1.79 µM; in [3], 0.385 µM; in assay [4], 0.393 µM; in assay [5] it was 0.274 µM; in [6], 1.09 µM. In addition, the TGI is 0.304 µM in [7], 0.332 µM in [8], 1.42 µM in assay [9] and 0.423 µM in [10].

Turning to `N.N.NC(CS)C(=O)[O-].NC(CS)C(=O)[O-].[Pt+4]` (stereo not given), the GI50 in [1], in assay [2], in assay [3], in assay [4], in assay [5] and in [6] was over 50 µM throughout. The GI50 in assay [7], in [8], in assay [9] and in assay [10] was over 50 µM throughout. In addition, the TGI in [1], in assay [2], in assay [3], in assay [4], in [5] and in assay [6] was over 50 µM in each case. In addition, the TGI in assay [7], in [8], in assay [9] and in [10] was over 50 µM in each case.

As for `CCOC(CN=c1nc(N(C)C)ss1)OCC`, the TGI is 7.28 µM in [1]; over 80 µM in assay [2]; over 100 µM in assay [3]; 42.8 µM in assay [4]; 52.9 µM in [5]; over 94.4 µM in assay [6]. Further, the TGI in assay [7] was over 46.4 µM; in assay [8], 37.3 µM; in assay [9], over 100 µM; in assay [10], 12.2 µM.

`O=[N+]([O-])/C=C/c1c[nH]c2ccccc12`: the GI50 is 15.6 µM in assay [1]; 19.3 µM in assay [2]; 4.35 µM in assay [3]; 18.2 µM in assay [4]; 19 µM in assay [5]; 17 µM in [6]. Also, the GI50 in assay [7] is 15.4 µM; in [8] it was 19.5 µM; in assay [9], 15.2 µM; in assay [10], 2.92 µM. For the same compound, the TGI is 30.6 µM in assay [1]; 45.1 µM in assay [2]; 12.5 µM in assay [3]; 45.7 µM in assay [4]; 35.7 µM in [5]; 46.3 µM in [6]. The TGI was found to be 33 µM in [7], 35.1 µM in assay [8], 29.1 µM in assay [9] and 7.18 µM in [10].

As to `CCN(CC)CCOc1ccc(/C=C2\CC3C4CC=C5C[C@@H](N6CCCC6)CC[C@]5(C)C4CC[C@]3(C)[C@H]2O)cc1OC` (stereo not given in full), the GI50 in assay [1] is 5.4 µM; in assay [2], 12.9 µM; in [3], 1.71 µM; in assay [4], 3.45 µM; in assay [5], 3.68 µM; in [6], 14.2 µM. The GI50 in [7] is 5.06 µM; in [8], 3.79 µM; in assay [9], 27.2 µM; in [10] it was 0.224 µM. Further, the TGI in assay [1] is 23 µM; in assay [2] it was over 77.4 µM; in assay [3] it was 4.79 µM; in assay [4], 22.4 µM; in assay [5] it was 9.82 µM; in assay [6], 65.7 µM. Also, the TGI was 13.6 µM in [7], 17.8 µM in assay [8], over 70.8 µM in assay [9] and 0.648 µM in [10].
